Results: publication PMC12298827, “Subchronic Toxicities of Four Per- and Polyfluoroalkyl Substances (PFASs) by Oral Exposure in Sprague–Dawley Rats” (Toxics, 2025)

Test system: male and female Sprague–Dawley rats
Test: 90-day subchronic oral gavage toxicity study
Assay type: in vivo, rat
Parameters: key to NOEL, absolute liver weight increase / LOEL, absolute liver weight increase / NOEL, relative kidney weight increase / LOEL, relative kidney weight increase / NOEL, absolute kidney weight increase / LOEL, absolute kidney weight increase / NOEL, relative liver weight increase / LOEL, relative liver weight increase: NR: no response, no statistically significant dose-dependent changes
Experimental: Subchronic (90-day) studies were performed in accordance with current U.S. EPA’s Toxic Substances Control Act Good Laboratory Practice (GLP) Standards, with the following two general exceptions to the GLP guidelines: Analysis of the dose formulations was conducted according to RTI-approved Standard Operating Procedures, and corn oil (the vehicle) was not characterized (certificate of analysis from the vendor is available in the appendices to the final reports). Male and female Sprague–Dawley rats (five dose levels plus a control, n = 10/sex/dose group, corn oil vehicle dose volume of 3 mL/kg; oral gavage) were used in these studies, and the rats were euthanized on SD 91. The dose levels for PFHI were 0, 12.5, 25, 50, 100, and 200 mg/kg-day. The dose levels for MHFPK were 0, 18.8, 37.5, 75, 150, and 300 mg/kg-day. The dose levels for PFNAC were 0, 0.1, 0.3, 1.0, 3.0, and 10 mg/kg-day for male rats and 0, 0.3, 1.0, 3.0, 10, and 30 mg/kg-day for female rats. For CTFPA, the dose levels were 0, 1.9, 3.8. 7.5, 15, and 30 mg/kg-day for male rats and 0, 6.3, 12.5, 25, 50, and 100 mg/kg-day for female rats. For each PFAS, three batches of dosing solution were prepared. The time between the batch preparation of the dosing solutions ranged between 29 and 39 days. Blood samples were collected from all the rats at termination for serum chemistry, hematology, coagulation, and the analysis of the parent PFAS chemical in the plasma. In vivo data collection and further detail on the endpoints examined postmortem are described below.
The rats were observed twice daily for morbidity and mortality throughout the study period. At least once prior to randomization to test groups and weekly thereafter, the rats were physically examined, and bodyweights were obtained. Feed consumption was quantified weekly starting on SD 1.
Neurotoxicity was evaluated using the functional observational battery (FOB) and measuring locomotor activity (LMA) 2–4 h post dosing on SDs 78–80 and 80–84, respectively. For both the 14- and 90-day studies, an ophthalmologic examination was conducted prior to randomization and near the end of the study, using indirect ophthalmoscopy and slit–lamp biomicroscopy (as needed) after the administration of a mydriatic solution.
Hematology, biochemistry, and coagulation endpoints were measured at the termination of the study. A Siemens Advia 2120i hematology analyzer (Siemens Healthineers, Erlangen, Germany) was used to measure (or calculate) the parameters related to the complete blood count, leukocyte differential count, and reticulocyte count. The hematology parameters are listed and described in Table 2. The prothrombin time […] and activated partial thromboplastin time (APTT) were measured using an Instrumentation Laboratory (Bedford, MA, USA) ACL Elite Pro coagulation analyzer (laser–nephelometric centrifugal method).
At necropsy, the rats were visually examined for external abnormalities and organ weights (absolute and relative to the BW and brain weight), which were recorded (paired organs weighed together). The tissues were preserved in 10% neutral buffered formalin (NBF), except for the ocular tissues, testes, and epididymides, which were preserved in modified Davidson’s fixative and later transferred to 10% NBF. Bone marrow smears were prepared from the femurs, and the slides were air-dried, fixed in methanol, stained, and stored at room temperature for possible future evaluation. The preserved tissues were embedded in paraffin, sectioned, stained with hematoxylin and eosin, and examined by a board-certified veterinary pathologist.
Statistical analysis was performed using Provantis™ Version 10 or greater (Instem LSS, Limited; Stone, Staffordshire, UK). Differences among the treatment groups compared to the control were evaluated using one-way analysis of variance (ANOVA) if the underlying assumptions of a normal distribution (Shapiro–Wilk test) and the homogeneity of the variance (Levene’s test) were satisfied. […]

## CC(=O)C(F)(F)C(F)(F)C(F)(F)F [MHFPK, Methyl heptafluoropropyl ketone]
female, 300 mg/kg-day
  MPV: 9.01 ± 0.50 fL
  PT: 15.33 s
  RBC: 8.159±0.351 M/µL
  Total BW change: 95.70 g
  Total Food Consumed: 1575 g
male
  LOEL, absolute kidney weight increase: NR
  LOEL, absolute liver weight increase: NR
  LOEL, relative kidney weight increase: NR
  LOEL, relative liver weight increase: NR
  NOEL, absolute kidney weight increase: NR
  NOEL, absolute liver weight increase: NR
  NOEL, relative kidney weight increase: NR
  NOEL, relative liver weight increase: NR
male, 18.8 mg/kg-day
  % BW Gain: 103.77%
  % Diff, % BW Gain: 6.06%
  % Diff, Total BW change: 2.29%
  % Diff, Total Food Consumed: -1.53%
  A/G: 0.85±0.03 ratio
  ABNEUT: 2.172±0.976 K/µL
  ABRETi: 179.08±30.61 10^9/L
  ABSEOS: 0.110±0.032 K/µL
  ALB: 3.17 ± 0.18 g/dL
  ALPi: 114.0±26.8 U/L
  APTT: 19.56 s
  BUN: 14.8 ± 1.4 mg/dL
  CHOL: 78.6 ± 12.0 mg/dL
  GLOB: 3.75 ± 0.18 g/dL
  GLUC: 187.8 ± 37.5 mg/dL
  HCT: 49.80±1.91%
  HGB: 15.51 ± 0.80 g/dL
  Kidney Weight: 3.11 g
  Kidney/Body Weight: 0.54%
  Kidney/Brain Weight: 144%
  Liver Weight: 14.06 g
  Liver/Body Weight: 2.41%
  Liver/Brain Weight: 649%
  MPV: 7.85 ± 0.72 fL
  PT: 15.63 s
  RBC: 8.891±0.355 M/µL
  Total BW change: 300.42 g
  Total Food Consumed: 2143 g
male, 37.5 mg/kg-day
  % BW Gain: 101.81%
  % Diff, % BW Gain: 4.06%
  % Diff, Total BW change: 3.12%
  % Diff, Total Food Consumed: -2.01%
  A/G: 0.86±0.07 ratio
  ABNEUT: 1.859±0.620 K/µL
  ABRETi: 192.99±15.30 10^9/L
  ABSEOS: 0.179±0.069 K/µL
  ALB: 3.17 ± 0.15 g/dL
  ALPi: 117.7±20.1 U/L
  APTT: 18.03 s
  BUN: 16.3 ± 1.2 mg/dL
  CHOL: 75.9 ± 12.3 mg/dL
  GLOB: 3.69 ± 0.27 g/dL
  GLUC: 217.1 ± 33.5 mg/dL
  HCT: 49.12±1.32%
  HGB: 15.11 ± 0.46 g/dL
  Kidney Weight: 2.95 g
  Kidney/Body Weight: 0.50%
  Kidney/Brain Weight: 134%
  Liver Weight: 13.83 g
  Liver/Body Weight: 2.34%
  Liver/Brain Weight: 627%
  MPV: 8.18 ± 0.65 fL
  PT: 16.31 s
  RBC: 8.732±0.259 M/µL
  Total BW change: 302.87 g
  Total Food Consumed: 2133 g
male, 75 mg/kg-day
  % BW Gain: 102.83%
  % Diff, % BW Gain: 5.10%
  % Diff, Total BW change: 5.10%
  % Diff, Total Food Consumed: 1.92%
  A/G: 0.86±0.06 ratio
  ABNEUT: 1.731±0.709 K/µL
  ABRETi: 194.58±21.06 10^9/L
  ABSEOS: 0.132±0.036 K/µL
  ALB: 3.18 ± 0.15 g/dL
  ALPi: 121.9±37.5 U/L
  APTT: 17.79 s
  BUN: 15.8 ± 1.8 mg/dL
  CHOL: 67.2 ± 7.1 mg/dL
  GLOB: 3.70 ± 0.19 g/dL
  GLUC: 214.9 ± 18.3 mg/dL
  HCT: 50.90±1.81%
  HGB: 15.70 ± 0.72 g/dL
  Kidney Weight: 3.25 g
  Kidney/Body Weight: 0.54%
  Kidney/Brain Weight: 146%
  Liver Weight: 15.73 g
  Liver/Body Weight: 2.62%
  Liver/Brain Weight: 706%
  MPV: 7.92 ± 0.76 fL
  PT: 16.37 s
  RBC: 9.195±0.417 M/µL
  Total BW change: 308.68 g
  Total Food Consumed: 2218 g
male, 150 mg/kg-day
  % BW Gain: 104.78%
  % Diff, % BW Gain: 7.09%
  % Diff, Total BW change: 6.62%
  % Diff, Total Food Consumed: 3.52%
  A/G: 0.85±0.05 ratio
  ABNEUT: 1.761±0.490 K/µL
  ABRETi: 181.45±26.70 10^9/L
  ABSEOS: 0.155±0.028 K/µL
  ALB: 3.16 ± 0.18 g/dL
  ALPi: 123.9±21.1 U/L
  APTT: 18.41 s
  BUN: 14.6 ± 1.7 mg/dL
  CHOL: 71.1 ± 12.3 mg/dL
  Decrease in the adrenal/BW ratio: 20%
  GLOB: 3.72 ± 0.20 g/dL
  GLUC: 206.8 ± 44.7 mg/dL
  HCT: 50.21±1.86%
  HGB: 15.30 ± 0.78 g/dL
  Kidney Weight: 3.28 g
  Kidney/Body Weight: 0.54%
  Kidney/Brain Weight: 150%
  Liver Weight: 15.50 g
  Liver/Body Weight: 2.54%
  Liver/Brain Weight: 709%
  MPV: 8.53 ± 0.84 fL
  PT: 16.77 s
  RBC: 9.254±0.319 M/µL
  Total BW change: 313.14 g
  Total Food Consumed: 2253 g
male, 300 mg/kg-day
  % BW Gain: 102.36%
  % Diff, % BW Gain: 4.62%
  % Diff, Total BW change: 2.35%
  % Diff, Total Food Consumed: 0.89%
  A/G: 0.88±0.07 ratio
  ABNEUT: 1.674±0.435 K/µL
  ABRETi: 174.98±22.88 10^9/L
  ABSEOS: 0.139±0.055 K/µL
  ALB: 3.24 ± 0.18 g/dL
  ALPi: 123.2±28.8 U/L
  APTT: 17.66 s
  Adrenal/BW ratio: no effect
  BUN: 14.8 ± 3.7 mg/dL
  CHOL: 76.0 ± 22.0 mg/dL
  GLOB: 3.70 ± 0.19 g/dL
  GLUC: 206.4 ± 24.4 mg/dL
  HCT: 49.25±1.52%
  HGB: 15.18 ± 0.47 g/dL
  Kidney Weight: 3.24 g
  Kidney/Body Weight: 0.55%
  Kidney/Brain Weight: 144%
  Liver Weight: 15.58 g
  Liver/Body Weight: 2.61%
  Liver/Brain Weight: 693%
  MPV: 8.58 ± 0.84 fL
  PT: 17.12 s
  RBC: 8.946±0.337 M/µL
  Total BW change: 300.61 g
  Total Food Consumed: 2196 g
